This experiment addresses Delta-type opioid receptor (Homo sapiens, UniProt P41143). The experiment can be described thus: Displacement of [125I]deltorphin 2 from human recombinant delta opioid receptor expressed in HEK293 cells. The class given is cell-based.

Drawing on ChEMBL document CHEMBL1158055, “Grandisines C-G, indolizidine alkaloids from the Australian rainforest tree Elaeocarpus grandis” (J Nat Prod, 2006), this text covers IC50 for five compounds.

The IC50 is the point on the concentration scale where inhibition reaches its midpoint.

Sequence of Delta-type opioid receptor (P41143 whole entry): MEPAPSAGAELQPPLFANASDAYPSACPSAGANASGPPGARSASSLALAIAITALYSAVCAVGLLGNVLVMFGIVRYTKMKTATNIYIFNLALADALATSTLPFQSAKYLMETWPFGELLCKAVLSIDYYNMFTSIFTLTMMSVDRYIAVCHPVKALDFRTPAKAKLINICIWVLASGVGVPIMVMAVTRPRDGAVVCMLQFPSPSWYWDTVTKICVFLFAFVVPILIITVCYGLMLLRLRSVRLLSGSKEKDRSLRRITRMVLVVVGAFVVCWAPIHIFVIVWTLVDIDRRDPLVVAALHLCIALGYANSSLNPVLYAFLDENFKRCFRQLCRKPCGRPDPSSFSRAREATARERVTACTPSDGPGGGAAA

`C[C@H]1CC=CC2=C1C(=O)[C@@H]1[C@@H](CCN3CCC[C@@H]13)O2`: the IC50 came to 9.9 µM.
With `C[C@H]1C[C@H](O)CC2=C1C(=O)[C@@H]1[C@@H](CCN3CCC[C@@H]13)O2` [GRANDISINE C] the figure was 14.6 µM; with `C[C@H]1CC=CC(=O)[C@@H]1C(=O)C1=CCCN2CCC[C@@H]12` [GRANDISINE D], 1.65 µM.
As for `C[C@H]1C[C@H](N)CC2=C1C(=O)[C@@H]1[C@@H](CCN3CCC[C@@H]13)O2` [GRANDISINE F], the IC50 stood at 1.55 µM.
`COC(=O)C[C@@H]1C[C@H](C)CC(C2=CCCN3CCCC23)=N1` (stereo not given in full) [GRANDISINE G]: the IC50 was determined as 75.4 µM.
